In patent US20260158002A1, “APPLICATION OF COMPOSITION CONTAINING EDARAVONE AND DEXBORNEOL IN IMPROVING OR TREATING COGNITIVE IMPAIRMENT” (NEURODAWN PHARMACEUTICAL CO., LTD., priority 2021, published 2026):

Key:
primary cortical neurons = assay: Aβ1-42-induced primary cortical neuronal injury test (Luminescent Cell Viability Assay); format: cell-based, rat; settings: single agent, pre-incubation 30 min before oligomerized Aβ1-42 50 μM, 24 h; edaravone 3.7 to 100 μM, dexborneol 1.2 to 100 μM; vs DMSO group
Experimental: A SD pregnant rat at 18 days of pregnancy was sacrificed by cervical dislocation, the uteruses of the rat were dissected, the brain of E18 fetal rat was taken out, the cerebral cortical tissue of the fetal rat was isolated into an ice-cold DMEM, the meninge and blood vessels were removed from the cortical tissue under a dissecting microscope, the cortical tissue was transferred to an ice-cold DMEM and minced (about 1 mm^3), and digested with trypsin at 37° C. for 10 min, the digestion was terminated with FBS, a Pasteur pipette was used to perform gentle pipetting and dispersing, and screening was then performed using a 200-mesh sieve. […] The cells were counted by a hemocytometer, diluted to 5×10^5 cells/ml with a complete medium, and seeded in a 96-well plate coated with PDL (100 μL/well) for culture. […]
The medium of the in vitro matured primary neurons was replaced with a complete medium containing different concentrations (1.2, 3.7, 11.1, 33.3, 100.0 μM) of edaravone (E), dexborneol (B) or an edaravone and dexborneol composition (EB), after incubation at 37° C. for 30 min, oligomerized Aβ1-42 (final concentration of 50 μM) was added, the culture was continued for 24 h, and the neuronal viability was tested. […] LUMbackground is the background reading of the cell-free medium well into which Luminescent Cell Viability Assay kit is added. […]

[1] = system: pro-inflammatory factors (TNF-α, IL-1β, etc.) and inflammatory proteins (iNOS and COX-2); settings: cited from earlier work
GABAAR receptors = settings: cited from earlier work

Compound: CC1(C)[C@@H]2CC[C@@]1(C)[C@@H](O)C2 [dexborneol, (+)-borneol]
- inhibiting Aβ-induced neurotoxicity, increasing the cell viability (primary cortical neurons): capable of inhibiting Aβ-induced neurotoxicity in a concentration-dependent manner
- pro-inflammatory factors and inflammatory proteins within the brain [1]: reduce multiple pro-inflammatory factors (TNF-α, IL-1β, etc.) and inflammatory proteins (iNOS and COX-2) within the brain
- agonism of inhibitory GABAAR receptors (GABAAR receptors): can agonize inhibitory GABAAR receptors
